From patent US20110020326A1, “METHOD OF TREATING POLYCYSTIC KIDNEY DISEASE” (CHILDREN'S MEDICAL CENTER CORPORATION, priority 2008, published 2011)
“Also recorded” adds a separate entry of the source.

Columns and labels:
[1] = test system: Pkd1^null/null embryonic kidneys; experiment: Embryonic kidney organ culture model of PKD (8-Br-cAMP-induced cyst formation, H&E sections); assay type: cell-based, mouse; conditions: 96 hours of culture
Description: Embryonic mice kidneys of E13.5 were dissected out and cultured in media^29 (1% FBS, 5 mg/ml Transferin, 0.05 mM Sodium Selenite, 100 nM hydrocortisone, 2 nM T3, 25 ng/ml PGE1, 100 U/ml Penicillin/streptomycin, 100 mM 8-Br-cAMP) in Center-Well Organ Culture Dish (BD Labware, Franklin Lakes, N.J.). The following day, the kidneys from the same embryo were treated with either […] Met Kinase Inhibitor (Calbiochem, La Jolla, CA) or DMSO (the same volume with Met Kinase Inhibitor). The media were changed everyday with the same additives as above. After […], kidneys were fixed by 4% PFA, and embedded in paraffin. Paraffin sections were stained with hematoxylin and eosin.
Embryonic mice kidneys of E13.5 were dissected out and cultured in media (1% FBS, 5 mg/ml Transferin, 0.05 mM Sodium Seelenite, 100 nM hydrocortisone, 2 nM T3, 25ng/ml PGE1, 100 U/ml Penicillin/streptomycin, 100 mM 8-Br-cAMP) in Center-Well Organ Culture Dish (BD Labware, Franklin Lakes, N.J.). The following day, the kidneys from the same embryo were treated with either 2 microgram/ml c-MET blocking antibody (R&D Systems, Minneapolis, Minn.) or PBS (the same volume with c-Met blocking antibody). The media were changed everyday with the same additives as above. After 4 days, kidneys were fixed by 4% PFA, and embedded in paraffin. Paraffin sections were stained with hematoxylin and eosin.
E13.5 embryonic kidneys were put in organ culture along with 100 μM 8-Br-cAMP, with or without 5 μM c-MET inhibitor (SU11274, from Calbiochem). (B) E13.5 embryonic kidneys were put in organ culture along with 100 mM 8-Br-cAMP, with or without 5 μg/ml c-MET neutralizing antibody (R&D Systems). (C) E13.5 embryonic kidneys were put in organ culture along with 100 mM 8-Br-cAMP, with or without 0.5 μM c-MET inhibitor (PHA665752, from Tocris, UK). Hematoxylin & Eosin stained sections of kidneys are shown after 96 hours of culture.

[2] = test system: mTOR phosphorylation in Pkd1^null/null cells; experiment: mTOR phosphorylation (Western blot phospho-mTOR / total mTOR) in Pkd1 null/null cells; assay type: cell-based, mouse; conditions: c-Met inhibitor 5 mM for 40 min (FIG. 1 legend) / 5 μM, 4 hours (Example 5), FIG. 1a, b
Description: Pkd1 wild type (WT) and Pkd1^null/null cell line were isolated from embryonic day 15.5 kidneys from a cross of Pkd1^null/+ mice that also carry a temperature-sensitive simian virus 40 (SV40) large T-antigen transgene, similar with the protocol described in reference 23. Wt and Pkd1^null/null cells were cultured in Dulbecco's modified Eagle medium containing 2% fetal bovine serum, 0.75 μg/L γ-interferon, 1.0 g/L insulin, 0.67 mg/L sodium selenite, 0.55 g/L transferrin, 36 ng/ml hydrocortisone, 100 U/ml Penicillin/streptomycin under 33° C. and 5% CO2^23.
Immunoprecipitation and western-blot were performed using whole cell lysates unless otherwise specified. Confluent cells were collected, washed with PBS, lysed with lysis buffer (20 mM Tris/HCl, 1 mM EDTA, 150 mM NaCl, 1% Triton X-100) containing proteinase inhibitor cocktail tablet (Roche #1697498, Mannheim, Germany) at 4° C. for 30 minutes. After centrifugation at 13,000 rpm for 15 minutes, supernatants were incubated with specific antibody at 4° C. for 1 hour, followed by incubation with Protein G conjugated beads (Pierce Biotechnology, IL) at 4° C. for 2 hours, washed in lysis buffer. Samples were running on 7.5% acrylamide gel, transferred to PVDF membranes and visualized by immunoblotting with respective antibodies. […]

[3] = FIG. 6, Pkd1^null/null kidneys at E15.5, 10 mM 8-Br-cAMP, 5 μM c-MET inhibitor

| effect on nephrogenesis ([1]; FIG. 7C, E13.5 kidneys, 100 mM 8-Br-cAMP, 0.5 μM) | effect on nephrogenesis ([1]; FIG. 6, wild type and Pkd1^null/null kidneys, 5 μM c-MET inhibitor, listed as c-MET inhibitor) | effect on nephrogenesis ([1]; FIG. 6, wild type and Pkd1^null/null kidneys, 5 μM c-MET inhibitor, listed as c-Met inhibitor) | effect on nephrogenesis ([1]; FIG. 7A, E13.5 kidneys, 100 μM 8-Br-cAMP, 5 μM) | SMILES | cyst formation ([1]; FIG. 7C, E13.5 Pkd1 null/null kidneys, 100 mM 8-Br-cAMP, 0.5 μM) | mTOR phosphorylation [2] | mTOR phosphorylation ([2]; listed as Met Kinase Inhibitor) | cyst formation [1, 3] | size and number of cysts [1, 3] | cyst formation ([1]; FIG. 7A, E13.5 Pkd1 null/null kidneys, 100 μM 8-Br-cAMP, 5 μM) |
| --- | --- | --- | --- | --- | --- | --- | --- | --- | --- | --- |
| no apparent effect |  |  |  | Cc1[nH]c(/C=C2\C(=O)Nc3ccc(S(=O)(=O)Cc4c(Cl)cccc4Cl)cc32)c(C)c1C(=O)N1CCC[C@@H]1CN1CCCC1 [PHA665752, (2R)-1-[[5-[(Z)45-[[(2,6-Dichlorophenyl)methyl]sulfony 1]-1,2-dihydro-2-oxo-3H-indo1-3-ylidenelmethyl]-2,4-dimethyl-1H-pyrrol-3-yl]carbonyl]-2-(1-pyrrolidinylmethyl) pyrrolidone] | decreased |  |  |  |  |  |
|  | no apparent effect | did not have a marked effect | no apparent effect | Cc1[nH]c(/C=C2\C(=O)Nc3ccc(S(=O)(=O)N(C)c4cccc(Cl)c4)cc32)c(C)c1C(=O)N1CCN(C)CC1 [SU11274, (3Z)-N-(3-chlorophenyl)-3-({3,5-dimethyl-4-[(4-methylpiperazin-1-yl)carbonyl]-1H-pyrrol-2-yl}methylene)-N-methyl-2-oxoindoline-5-sulfonamide] |  | inhibited | reduced mTOR phosphorylation in Pkd1^null/null cells, to a baseline level observed in WT cells | reduced cyst formation in organ culture by Pkd1^null/null mutant kidneys to the basal level observed in WT kidneys; also recorded: decreased | decreased | decreased |
